In patent US4110472A, “Derivatives of 1-(disubstituted phenoxy)-3-amino-2-hydroxypropanes” (Bayer Aktiengesellschaft, priority 1975, dated 1978):
Counter-ions that a name gives are not always drawn.

Experiments:
in vivo = conditions: mouse
cerebral blood flow [1] = test: Increase in the cerebral blood flow in cats (133 xenon clearance); conditions: for increase the cerebral blood flow (in words) / activity on cerebral blood flow (in words): cats; for increase the cerebral blood flow (in words): Tables 1 and 2, FIGS. 6A, 6B and 7; for action on cerebral blood flow at lower doses vs comparison substances: intravenous administration; for activity on cerebral blood flow (in words): peroral
Text: (§1) Increase in the cerebral blood flow in cats and dogs Cats (1.8-3.0 kg) and dogs (18-25 kg) of both sexes are rendered analgetic with fentanyl and curarized.

cerebral blood flow [2] = test: Increase in the cerebral blood flow in dogs (133 xenon clearance); format: in vivo; conditions: FIGS. 6A, 6B and 7
Text: as §1

[3] = tested on: amnesia induced by electric shock; test: Protective action against amnesia induced by electric shock in male mice; format: in vivo; conditions: vs propanolol and vincamine; 3 administrations at 24 h intervals, FIGS. 1-5
Text: 1. Protective action against amnesia in male mice A modification of the method of Taber and Banuazizi (Psychopharmacol. 9, 382-91, 1966) was employed. Mice are taught to remain seated in a small compartment of a test cage and not to move into the larger compartment in which an electric shock to the foot were previously received. If a convulsive electric shock is applied to a mouse after it has been so taught, it develops amnesia and forgets the previous experience (the shock to its foot in the larger compartment),and moves from the smaller compartment into the larger compartment. By pre-treating the animals with a test substance, it is possible to determine whether these substances have any protective action against the amnesia produced. Each test substance is administered to the particular animal 3 times at intervals of 24 hours, the last administration being 1 hour before the first test. Two groups are formed for each test; a control group with amnesia and a pre-treated group. For each test group, the average value of the times which have elapsed befoe the barrier is crossed on the 2nd day is calculated. This time is taken as a criterion for the learning capacity.

[4] = tested on: 7-minute complete cerebral ischaemia; test: Restricted circulation and mortality after a transient total cerebral ischaemia (experimental apoplexy); format: in vivo
Text: Restricted circulation and mortality after a transient total cerebral ischaemia ("experimental apoplexy")
A 7-minute complete cerebral ischaemia is caused in curarized cats by inflating a collar placed around the neck.

Compound	LD50 (in vivo; iv, mice, intravenously)	LD50 (in vivo; po, mice, orally)	increase the cerebral blood flow (in words) (cerebral blood flow [1])	action on cerebral blood flow at lower doses vs comparison substances (cerebral blood flow [1])	activity on cerebral blood flow (in words) (cerebral blood flow [1]; at 50 and 25 mg/kg)	increase the cerebral blood flow (in words) (cerebral blood flow [2])	protective action against amnesia induced by electric shock [3]	activity on cerebral blood flow (in words) (cerebral blood flow [1]; 50 mg/kg)	activity in the experimental apoplexy test (in words) ([4]; cats)	LD50 (in vivo; iv)	LD50 (in vivo; po)	restriction in the cerebral blood flow after a 7-minute cerebral ischaemia ([4]; cats, pretreated 50 mg/kg perorally)	mortality after 7-minute cerebral ischaemia (cats died) ([4]; pretreated 50 mg/kg perorally, 94% of controls died within 48 hours, significant)
OC(CNC(c1ccccc1)c1ccccc1)COc1ccc(Cl)c(Cl)c1 (centres unmarked) [Compound D, 1-(3,4-dichlorophenoxy)-2-hydroxy-3-diphenylmethylaminopropane]	76 mg/kg	> 2000 mg/kg	significantly increase	stronger than that of the comparison substances	distinct action	significantly increase	considerably more effective						
CN(C)CCCOC1(Cc2ccccc2)CCCCCC1 [bencyclan, reference compound]	33 mg/kg	> 2000 mg/kg						inactive					
CC[C@]12CCCN3CCc4c(n(c5ccccc45)[C@@](O)(C(=O)OC)C1)[C@@H]32 [vincamine, reference compound]	95 mg/kg	460 mg/kg							inactive				
C/C=C/c1ccc(OCC)c(OCC(O)CNC2c3ccccc3-c3ccccc32)c1 (stereo not drawn) [Compound C, 1-(2-ethoxy-5-trans-propenylphenoxy)-2-hydroxy-3-(9-fluorenylamino)-propane]	85 mg/kg	> 2000 mg/kg	significantly increase	stronger than that of the comparison substances	distinct action	significantly increase							
C=CCc1ccc(OCC(O)CNC(c2ccccc2)c2ccccc2)c(OC)c1.Cl (centres unmarked) [Compound B, 1-(2-methoxy-4-allylphenoxy)-2-hydroxy-3-diphenylmethylaminopropane hydrochloride]	43 mg/kg	450 mg/kg	significantly increase	stronger than that of the comparison substances	distinct action	significantly increase	considerably more effective						
C/C=C/c1ccc(OCC)c(OCC(O)CNC(c2ccccc2)c2ccccc2)c1 (stereo not drawn) [Compound A, 1-(2-ethoxy-5-trans-propenylphenoxy)-2-hydroxy-3-diphenylmethylaminopropane hydrochloride]			significantly increase	stronger than that of the comparison substances	distinct action	significantly increase	considerably more effective			80 mg/kg	> 2000 mg/kg	no restriction	33%
